Results reported in publication PMC12217481, “Structure and mechanism of taniborbactam inhibition of the cefepime-hydrolyzing, partial R2-loop deletion Pseudomonas-derived cephalosporinase variant PDC-88” (Antimicrobial Agents and Chemotherapy, 2025).

How the values were obtained:
[1] = system: isogenic E. coli strains expressing PDC R2-loop deletion variants (PDC-88 to PDC-92); assay: MIC changes across the five isogenic E. coli R2-loop deletion strains; assay type: cell-based, Escherichia coli; conditions: inhibitor at constant 4 µg/mL; R2-loop deletion variant strains
Method: Modal broth microdilution MICs (or median broth microdilution MICs where appropriate) were determined in accordance with Clinical and Laboratory Standards Institute (CLSI) M07 guidelines ([43]). Isogenic E. coli DH10B cells expressing the abovementioned plasmid-encoded PDC constructs were used. […] CLSI quality control strains Escherichia coli NCTC 13353, E. coli ATCC 35218, and Klebsiella pneumoniae ATCC 700603 were used during testing ([24]).

PDC-88 [2] = target: T1, PDC-88 (Pseudomonas aeruginosa, UniProt P24735, DEL316-317/G27D/G391A/T105A/V205L/V356I); assay: Off-rate (koff) by jump-dilution, PDC-88; assay type: biochemical
T1 construct: NdeI 5′-[…]-3ʹ and BamHI 5ʹ-[…]-3ʹ; His tag removed) (N); made in house; host or cells: E. coli BL21-CodonPlus (DE3)-RP, pET24a(+)
Method: (§1) The off-rates (koff) were determined using a jump-dilution method ([44]). […] The enzyme was serially diluted to 1 nM, and 100 μM nitrocefin was added to initiate the reaction. Recovery progress covers were recorded at 482 nm. The koff value was determined by fitting the progress curves to a single exponential equation. The half-life was determined by dividing ln(2) by koff.

PDC-3 [3] = target: T2, PDC-3 (Pseudomonas aeruginosa, UniProt P24735, T105A); assay: Thermal denaturation by circular dichroism, PDC-3; assay type: binding
T2 construct: The PDC-3 expression construct was created in a similar manner but starting with a previously described pBC SK(−) vector; made in house; host or cells: E. coli BL21-CodonPlus (DE3)-RP, pET24a(+)
Method: Competitive enzyme inhibitors can increase enzyme thermal stability as a result of binding to the active site.
Circular dichroism (CD) melting curve experiments were conducted using a J-815 spectropolarimeter (Jasco) and a Peltier effect temperature controller. Suprasil quartz cuvettes with a 0.1 cm path length (Hellma Analytics) were used in all experiments. […] Two-state behavior was observed, as indicated by identical curves at each wavelength. Equilibrium constants were calculated, and the melting temperature, Tm, was calculated from equilibrium denaturation data as previously described ([28]).

PDC-3 [4] = target: T2, PDC-3; assay: Competitive inhibition assay with nitrocefin (Ki app, IC50), PDC-3; assay type: biochemical
Method: (§2) β-Lactamase kinetic and inhibitor constants were determined using an Agilent 8453 UV-Visible Spectrophotometer to record progress curves and determine initial rates and other kinetic parameters as appropriate. Reactions were carried out in 1× phosphate-buffered saline (PBS) (pH 7.4) at room temperature in a 0.2 cm path-length quartz cuvette (Hellma Analytics). Reads were taken every 10 s to minimize UV-mediated background hydrolysis.
(§3) Competitive inhibition assays were used to determine IC50 and Ki app. Nitrocefin (a reporter substrate), enzyme, and inhibitor were mixed, and initial velocities were determined. […] Inverse steady-state velocities (1/V0) were plotted against inhibitor concentration ([I]), forming a straight line. The y-intercept of this line was divided by the slope of the line to yield Ki app obs and IC50 values. Apparent Ki values (Ki app) were determined by correcting for the affinity of nitrocefin in the active site using equation 2:
(§4) (2) KI app= KI app{obs/1+[S]/KM NCF

PDC-3 [5] = target: T2, PDC-3; assay: Off-rate (koff) by jump-dilution, PDC-3; assay type: biochemical
Method: as §1

PDC-88 [6] = target: T1, PDC-88; assay type: binding
Method: Circular dichroism (CD) melting curve experiments were conducted using a J-815 spectropolarimeter (Jasco) and a Peltier effect temperature controller. Suprasil quartz cuvettes with a 0.1 cm path length (Hellma Analytics) were used in all experiments. […] Equilibrium constants were calculated, and the melting temperature, Tm, was calculated from equilibrium denaturation data as previously described ([28]).

PDC-88 [7] = target: T1, PDC-88; assay: biochemical; assay type: biochemical
Method: as §2, §3, §4

NCCN[C@H]1CC[C@H](CC(=O)N[C@H]2Cc3cccc(C(=O)O)c3OB2O)CC1 [TAN, taniborbactam]
restoration of FEP activity / susceptibility by inhibitor [1]: restoring FEP activity in all cases
koff (PDC-88 [2]): 0.0007 ± 0.0001 s⁻¹
increase of Tm upon addition of inhibitor (PDC-3 [3]; PDC-3): +9 °C
Tm (PDC-3 [3]; PDC-3 with inhibitor, circular dichroism, PDC-3 alone 52°C): 61 °C
Ki app lower compared to avibactam (PDC-3 [4]): 4.1 fold
Ki app lower than TZB (PDC-3 [4]): 40 fold
Ki (PDC-3 [4]; nitrocefin reporter substrate): 0.66 ± 0.07 µM
IC50 (PDC-3 [4]; nitrocefin reporter substrate, 5 min preincubation): 0.016 ± 0.002 µM
koff (PDC-3 [5]): 0.0012 ± 0.0001 s⁻¹
increase of Tm upon addition of inhibitor (PDC-88 [6]; PDC-88): +7 °C
Tm (PDC-88 [6]; PDC-88 with inhibitor, circular dichroism, PDC-88 alone 53°C): 60 °C
IC50 (PDC-88 [7]): 0.022 ± 0.002 µM
Ki (PDC-88 [7]): 0.61 ± 0.06 µM
Ki app lower compared to avibactam (PDC-88 [7]; PDC-88): 9 fold
Ki app lower than TZB (PDC-88 [7]; PDC-88): 95 fold
